Among the data in ChEMBL document CHEMBL3351367, “Base-dependent formation of cis and trans olefins and their application in the synthesis of 5-oxo-ETE receptor antagonists” (Bioorg Med Chem Lett, 2014) are IC50 values, retold here.

The target of the assay is Oxoeicosanoid receptor 1 (Homo sapiens, UniProt Q8TDS5). As to the kind of experiment: Antagonist activity at 5-oxo-ETE receptor in human neutrophils assessed as inhibition of 5-oxo-ETE-induced Ca2+ mobilization incubated for 2 mins prior to 5-oxo-ETE addition by indo-1 staining-based spectrofluorometry. In kind it is functional.
Oxoeicosanoid receptor 1, sequence (Q8TDS5 whole entry): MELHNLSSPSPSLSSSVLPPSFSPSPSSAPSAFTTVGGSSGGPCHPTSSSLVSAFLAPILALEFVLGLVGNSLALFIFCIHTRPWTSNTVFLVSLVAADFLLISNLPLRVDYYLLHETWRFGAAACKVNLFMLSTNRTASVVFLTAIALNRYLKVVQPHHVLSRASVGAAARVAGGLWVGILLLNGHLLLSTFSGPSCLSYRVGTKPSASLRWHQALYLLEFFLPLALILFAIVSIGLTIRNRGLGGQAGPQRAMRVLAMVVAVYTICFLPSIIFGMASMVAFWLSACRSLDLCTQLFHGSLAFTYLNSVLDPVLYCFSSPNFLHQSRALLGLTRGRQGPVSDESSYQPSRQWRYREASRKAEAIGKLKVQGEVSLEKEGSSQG

As usually defined, the IC50 is the concentration that gives 50% inhibition. `CCCC/C=C/c1cc2ccc(Cl)cc2n1C(=O)CC(C)CC(=O)O` (configuration not stated): the IC50 is 18.5 µM.

Regarding `CCCC/C=C\c1cc2ccc(Cl)cc2n1C(=O)CC(C)CC(=O)O` (configuration not stated), the IC50 turned out to be 0.46 µM.
